Data from publication PMC5851651, “Population-specific design of de-immunized protein biotherapeutics” (PLoS Computational Biology, 2018).

Assays:
[1] = test system: DRB1*15:01, DRB1*03:01 and DRB1*07:01; assay: Experimental immunogenicity score: relative HLA binding combined across alleles, weighted by allele frequency; design: species or system human; key: allele-frequency-weighted sum of binding, % of control peptide signal; settings: for Difference to WT (Experimental Score): per peptide against wild-type counterpart; for Experimental Score: per peptide, weights DRB1*15:01 0.162, DRB1*07:01 0.146, DRB1*03:01 0.143
Experimental: (§1) To test the designs, we synthesized twenty overlapping 15-mer peptides containing the introduced mutations and their wild-type counterparts. The peptides maximally covered the predicted epitopes around the mutations of all designed constructs that contained one and two mutations (Supplementary S2 Table). The affinity of these peptides to the three HLA alleles was measured at time zero and after 24 hours (Methods, Supplementary S3 and S4 Tables). We linearly combined the measured relative affinity scores across HLA alleles weighted by their allele frequencies for each peptide respectively to produce a score that approximates the overall immunogenicity (Fig 5A). Results are presented for measurements taken at time point zero. […] Overall, the measured and predicted immunogenicity of the tested peptides correlated well with r = 0.76 (CI95 = [0.48, 0.91], t = 4.885, df = 17, p-value = 1.4e-4; Fig 5A). Next, we compared the predicted and measured gain or loss in immunogenicity for the whole region by reconstructing the targeted region using overlapping peptides. The measured relative scores were linearly combined (as previously) and then normalized to the number of overlapping peptides used in the reconstruction (Fig 5B). The difference in the measured scores between the wild type and mutant regions can be thought of as a proxy for gain or loss in immunogenicity and correlated well to the predicted changes (r = 0.86, CI95 = [0.40, 0.97], t = 4.136, df = 6, p-value = 6.1e-3; Fig 5B).
Fig 5 (A) Correlation of experimental and predicted immunogenicity of each peptide. The experimental immunogenicity score of a peptide is defined as the linear combination of the individual experimentally determined relative HLA binding affinity of each HLA allele h ∈ H weighted by the HLA allele frequency. (B) Correlation of experimental and predicted immunogenicity of the whole redesigned region. The summarized immunogenicity score of the whole region is the linear combination of the overlapping peptides used to reconstruct the region, normalized by total number of peptides used. The predicted immunogenicity scores per peptide were computed according to our immunogenicity objective function. The red lines are a fitted linear regression and the red tubes represent their 95-confidence interval.
(§2) In order to experimentally verify our in silico predictions for Factor VIII, we utilized the commercial REVEAL HLA-Peptide binding assay of ProImmune (www.proimmune.com). Peptides were synthesized using the PEPscreen custom library synthesis method, yielding high purity peptides for experimental analysis. HLA-peptide binding was assessed for the three HLA-DRB1 alleles used in this study (DRB1*15:01, DRB1*03:01 and DRB1*07:01). In short, the method compares the affinity of the studied peptide to the affinity of a high-affinity control peptide. Each peptide is then scored for binding to a certain HLA molecule relative to the score of the control peptide and reported as the percentage of the signal generated by the control peptide.

DRB1*03:01 = target: T1, DRB1*03:01 (Homo sapiens, UniProt P01903+P01911, A100K/A102G/A103R/A169T/F55Y/I96L/K41T/L162R/M171V/P40S/Q125H/Q178H/Q39Y/R42S/S66N/T106N/T262R/W38E/Y61H); assay: REVEAL HLA-Peptide binding assay (ProImmune); settings: score relative to high-affinity control peptide, percentage of the control signal
T1 construct: purchased ProImmune
Experimental: as §1, §2

DRB1*07:01 = DRB1*07:01 (Homo sapiens, UniProt P01903+P01911, A100R/A102G/A103Q/D57E/D86V/E43K/F76Y/K127E/L162R/M171V/P40G/Q125H/Q99D/R33Q/R42Y/R54Q/S133A/S66F/T210M/V115G/Y107V/Y59L/Y89S); assay: REVEAL HLA-Peptide binding assay (ProImmune); settings: score relative to high-affinity control peptide, percentage of the control signal
Experimental: as §1, §2

DRB1*15:01 = target: T2, DRB1*15:01 (Homo sapiens, UniProt P01903+P01911); assay: REVEAL HLA-Peptide binding assay (ProImmune); settings: score relative to high-affinity control peptide, percentage of the control signal
T2 construct: purchased ProImmune
Experimental: as §1, §2

[2] = time 0 (H0), listed as FTRYLRIHPQSWEHQ
[3] = time 0 (H0), listed as FTRYLRIHPQSWVHH
[4] = time 0 (H0), listed as LRIHPQSWEHQIALRM
[5] = time 0 (H0), listed as LRIHPQSWVHHIALRM
[6] = time 0 (H0), listed as LRIHPQSWVHQIALRM

| Sequence | Difference to WT (Experimental Score) ([1]; after 24 hours (H24)) | Experimental Score ([1]; after 24 hours (H24)) | Difference to WT (Experimental Score) ([1]; time 0 (H0)) | Experimental Score ([1]; time 0 (H0)) | DRB1*03:01 (DRB1*03:01; after 24 hours (H24)) [%] | DRB1*03:01 (DRB1*03:01; time 0 (H0)) [%] | DRB1*07:01 (DRB1*07:01; after 24 hours (H24)) [%] | DRB1*07:01 (DRB1*07:01; time 0 (H0)) [%] | DRB1*15:01 (DRB1*15:01; after 24 hours (H24)) [%] | DRB1*15:01 (DRB1*15:01; time 0 (H0)) [%] | further results |
| --- | --- | --- | --- | --- | --- | --- | --- | --- | --- | --- | --- |
| FTRYLRIHPQSWEHQ [Design M-10, peptide covering L2321F, V2333E] | -9.338 | 4.049 | -10.856 | 6.865 | 0.000 | 0.020 | 27.400 | 43.779 | 0.300 | 2.906 | DRB1*03:01 (DRB1*03:01; [2]): 0%; DRB1*07:01 (DRB1*07:01; [2]): 43.8%; DRB1*15:01 (DRB1*15:01; [2]): 2.9% |
| FTRYLRIHPQSWVHH [Design M-13, peptide covering L2321F, Q2335H] | -7.821 | 5.566 | -9.019 | 8.703 | 0.000 | 1.449 | 29.800 | 39.809 | 7.500 | 16.564 | DRB1*03:01 (DRB1*03:01; [3]): 1.4%; DRB1*07:01 (DRB1*07:01; [3]): 39.8%; DRB1*15:01 (DRB1*15:01; [3]): 16.6% |
| LRIHPQSWEHQIALRM [Design M-6, peptide covering V2333E] | -3.607 | 4.770 | -4.693 | 11.877 | 0.000 | 0.157 | 19.800 | 32.020 | 11.600 | 44.319 | DRB1*03:01 (DRB1*03:01; [4]): 0.2%; DRB1*07:01 (DRB1*07:01; [4]): 32%; DRB1*15:01 (DRB1*15:01; [4]): 44.3% |
| LRIHPQSWVHHIALRM [Design M-5, peptide covering Q2335H] | 0.870 | 9.247 | 0.779 | 17.349 | 0.000 | 0.555 | 40.700 | 65.265 | 20.400 | 47.784 | DRB1*03:01 (DRB1*03:01; [5]): 0.6%; DRB1*07:01 (DRB1*07:01; [5]): 65.3%; DRB1*15:01 (DRB1*15:01; [5]): 47.8% |
| LRIHPQSWVHQIALRM [WT-4, wild-type peptide of Factor VIII C2 domain, reference compound] | – | 8.377 | – | 16.570 | 0.021 | 0.200 | 38.252 | 56.788 | 17.219 | 50.927 | DRB1*03:01 (DRB1*03:01; [6]): 0.2%; DRB1*07:01 (DRB1*07:01; [6]): 56.8%; DRB1*15:01 (DRB1*15:01; [6]): 50.9% |
| LRLHPQSWEHQIALRM [Design M-15, peptide covering I2327L, V2333E] | -4.380 | 3.998 | -7.378 | 9.191 | 0.000 | 0.032 | 21.500 | 42.841 | 5.300 | 18.099 | – |
